Results: patent US20180117042A1, “METHODS FOR TREATING RESPIRATORY SYNCYTIAL VIRUS INFECTION” (ALIOS BIOPHARMA, INC., priority 2016, published 2018)

Experiments:
[1] = half-life of the triphosphate compound (B); conditions: triphosphate formed inside the cell
RSV = conditions: infants and young children with severe RSV LRTI; cited from earlier work
[2] = system: RSV-A Memphis 37b challenge virus; test: human RSV challenge model in healthy adults, viral load in nasal washes; type: in vivo
Method: Healthy adults received one of the following dosing regimens or placebo over 5 days using the human RSV challenge model.
Patients were given an intranasal inoculation of RSV-A Memphis 37b challenge virus. Administration of compound (A), or a pharmaceutically acceptable salt thereof, began approximately 12 hours after confirmation of RSV infection as determined by the presence of RSV RNA in nasopharyngeal washes. The test compound was administered as an oral-liquid suspension, wherein the drug vehicle was methyl cellulose and sterile water. The placebo was the drug vehicle without the test compound. Second dosages were started 12 hours after administration of the first dosage, and the remaining second dosages were provided in approximate 12 hour intervals. Nasal washes were collected twice daily approximately 36 to 48 hours after RSV inoculation until Day 12. Viral load was detected and quantified from the aliquots of the nasal wash samples using tissue infectivity plaque assays and PCR. (See DeVincenzo, J. P., et al., Am. J. Respir. Crit. Care. Med. (2010) 182(10):1305-1314) Patients returned for two follow-up visits on Day 16 (±2 days) and Day 28 (±2 days) post-challenge inoculation.

[3] = SAD/MAD study in pediatric patients hospitalized with RSV infection: safety; type: in vivo, human; conditions: infants hospitalized with RSV, interim blinded results
Method: One hundred fifty eight otherwise healthy pediatric patients hospitalized with RSV infection were recruited in a randomized, double-blind, placebo-controlled, SAD (single ascending dose) and MAD (multiple ascending dose) study. The patients were randomized into nine SAD, MAD regimens. Subjects not given the placebo were administered lumicitabine or compound (A), a prodrug of the nucleoside analog AL-8112 (otherwise referenced herein as compound (C), the triphosphate of which is a potent inhibitor of the RSV polymerase. The cohort size and dose for the first SAD cohort was prespecified. The makeup of all other cohorts was determined by an Independent Data Monitoring Committee (IDMC) that regularly reviewed data. FIG. 2 provides the single and multiple doses used in the study as well as approximate numbers of subjects dosed. Safety and PK data were collected for 7 (SAD) and 28 (MAD) days post randomization. PK was analyzed using non-linear mixed effect modeling. Part 1 (single ascending dose): Patients received a single dose of 1 of 4 ascending doses of compound (A), (1.37 mg/kg, 4.1 mg/kg, 12 mg/kg and 25 mg/kg) or placebo. Patients received compound (A) for a 7-day consecutive period. Part 2 (multiple ascending dosage): Patients received a loading dosage followed by nine maintenance dosages, or placebo. Patients received compound (A) for a 5-day consecutive period. […]

[4] = SAD/MAD study in pediatric patients hospitalized with RSV infection: plasma PK with PK modeling; type: in vivo, human
Method: One hundred fifty eight otherwise healthy pediatric patients hospitalized with RSV infection were recruited in a randomized, double-blind, placebo-controlled, SAD (single ascending dose) and MAD (multiple ascending dose) study. The patients were randomized into nine SAD, MAD regimens. Subjects not given the placebo were administered lumicitabine or compound (A), a prodrug of the nucleoside analog AL-8112 (otherwise referenced herein as compound (C), the triphosphate of which is a potent inhibitor of the RSV polymerase. The cohort size and dose for the first SAD cohort was prespecified. The makeup of all other cohorts was determined by an Independent Data Monitoring Committee (IDMC) that regularly reviewed data. FIG. 2 provides the single and multiple doses used in the study as well as approximate numbers of subjects dosed. Safety and PK data were collected for 7 (SAD) and 28 (MAD) days post randomization. PK was analyzed using non-linear mixed effect modeling.
Part 1 (single ascending dose): Patients received a single dose of 1 of 4 ascending doses of compound (A), (1.37 mg/kg, 4.1 mg/kg, 12 mg/kg and 25 mg/kg) or placebo. Patients received compound (A) for a 7-day consecutive period.
Part 2 (multiple ascending dosage): Patients received a loading dosage followed by nine maintenance dosages, or placebo. Patients received compound (A) for a 5-day consecutive period. The maintenance dosages were administered twice daily. In the twice daily dosage regimen, the first maintenance dosage was given 8-18 hours after the loading dosage (dosage 1).
A PK model was developed integrating adult and pediatric data to aid calculation of PK parameters and project efficacious doses. For pediatric dose and exposure projections three age cohorts were used: 1-<2 months, 2-<6 month and 6-<12 months. Apparent clearance increased with dose, creatinine clearance and body weight (using allometric principles). Maturation functions were applied for age dependent changes in Carboxylesterase 1 abundance on bioavailability and kidney function on renal elimination. […]

Nc1ccn([C@@H]2O[C@](CCl)(COP(=O)(O)OP(=O)(O)OP(=O)(O)O)[C@@H](O)[C@H]2F)c(=O)n1 [Compound (B)]
half-life [1]: ~17.6 h

NC(=O)c1ncn([C@@H]2O[C@H](CO)[C@@H](O)[C@H]2O)n1 [aerosolized ribavirin, ribavirin]
clinical benefit of treatment (RSV): failed to impart any clinically significant benefits

CC(C)C(=O)OC[C@@]1(CCl)O[C@@H](n2ccc(N)nc2=O)[C@H](F)[C@@H]1OC(=O)C(C)C [compound (A), Lumicitabine]
RSV viral load compared to the placebo ([2]; all regimens (750/150 mg, 750/500 mg, 375 mg), oral, 5 days, FIG. 1): marked reduction
RSV RNA ([2]; at Day 12, all treated patients): undetectable
RSV RNA ([2]; at Day 16 follow-up): undetectable
RSV RNA ([2]; at Day 28 follow-up): undetectable
laboratory abnormalities ([2]; healthy adults, 5 days dosing): no clinically significant laboratory abnormalities
treatment discontinuation during the study ([2]; healthy adults, 5 days dosing): no patient discontinued treatment
reduction of plaque forming units equivalents (PFUe/mL) ([2]; patients who received 750 mg on Day 1, within the first 24 hours): multi-log reduction
tolerability ([3]; multiple doses up to 60/40 mg/kg): well tolerated
tolerability ([3]; single doses up to 25 mg/kg): well tolerated

Nc1ccn([C@@H]2O[C@@](CO)(CCl)[C@@H](O)[C@H]2F)c(=O)n1 [compound (C)]
AUC(0-t) ([4]; human, plasma, doses of 40/20 mg/kg and 60/40 mg/kg compound (A), actual concentrations with PK modeling (FIG. 3), read-out: plasma AUC0-24): 8000 to 20000 ng·h/mL
accumulation ([4]; multiple dosing): no accumulation
plasma exposures with increasing ALS-8176 doses (dose proportionality) ([4]; oral): less than dose proportional
